Reference: patent publication US8728517B2, “Pharmaceutical compositions of entacapone co-micronized with sugar alcohols” (Wockhardt Ltd., priority 2008, dated 2014)

Test: Percent drug release of poorly soluble drugs combined with sugar alcohols
Type: physicochemical
Details: for effect on percent release: with sugar alcohols like mannitol or sorbitol, as physical mixture or complex

Row | SMILES | effect on percent release | effect on percent drug release (co-micronized with sugar alcohols vs formulation not co-micronized with a sugar alcohol)
1 | O=C1CCc2ccc(OCCCCN3CCN(c4cccc(Cl)c4Cl)CC3)cc2N1 [aripiprazole] | does not make any significant difference | –
2 | CCN(CC)C(=O)/C(C#N)=C/c1cc(O)c(O)c([N+](=O)[O-])c1 [entacapone, (E)-2-cyano-3-(3,4-dihydroxy-5-nitrophenyl)-N,N-diethyl-2-propenamide] | – | significant increase
3 | CCCCC1=NC2(CCCC2)C(=O)N1Cc1ccc(-c2ccccc2-c2nnn[nH]2)cc1 [irbesartan] | does not make any significant difference | –
